# Data as given in patent US20230085307A1, “PYRIDAZINONE COMPOUND AND HERBICIDE” (NISSAN CHEMICAL CORPORATION, priority 2019, published 2023).
# Tests used:
# late watergrass [1] = assay: Test Example 1: herbicidal activity, application before weed generation under submerged conditions (Table 16, symbol A); type: in vivo, late watergrass (Echinochloa oryzicola); conditions: 320 g/ha applied herbicide
# In short: (§1)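 Submerged Wagner pots (alluvial soil, 4 cm water) sown with weed seeds and planted with 2.5-leaf rice seedlings; emulsifiable concentrate diluted in water applied to water surface on sowing day. Held in greenhouse at 25-30 °C; injury scored 0-5 by herbicidal rate after three weeks.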
# Japanese bulrush [2] = assay: Test Example 1: herbicidal activity, application before weed generation under submerged conditions (Table 16, symbol B); type: in vivo, Japanese bulrush (Schoenoplectus juncoides); conditions: 320 g/ha applied herbicide
# In short: as §1
# oval-leafed pondweed [3] = assay: Test Example 1: herbicidal activity, application before weed generation under submerged conditions (Table 16, symbol C); type: in vivo, oval-leafed pondweed (Monochoria vaginalis); conditions: 320 g/ha applied herbicide
# In short: as §1
# late watergrass [4] = assay: Test Example 2: herbicidal activity, application during weed generation under submerged conditions (Table 17, symbol A); type: in vivo, late watergrass (Echinochloa oryzicola); conditions: AAH 320 g/ha; application during weed generation, submerged conditions
# In short: (§2)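 Steps: fill Wagner pots with alluvial soil; add water to give 4 cm depth; sow the species mixed; grow under glass at 25–30° C.; at 1–2 leaves apply water-diluted emulsion formulation to the water surface at a fixed herbicide amount; score after 3 weeks.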
# Japanese bulrush [5] = assay: Test Example 2: herbicidal activity, application during weed generation under submerged conditions (Table 17, symbol B); type: in vivo, Japanese bulrush (Schoenoplectus juncoides); conditions: AAH 320 g/ha; application during weed generation, submerged conditions
# In short: as §2
# oval-leafed pondweed [6] = assay: Test Example 2: herbicidal activity, application during weed generation under submerged conditions (Table 17, symbol C); type: in vivo, oval-leafed pondweed (Monochoria vaginalis); conditions: AAH 320 g/ha; application during weed generation, submerged conditions
# In short: as §2
# barnyard grass [7] = assay: Test Example 3: herbicidal effect by foliage application, Wagner pot (Table 18, symbol H); type: in vivo, barnyard grass (Echinochloa crus-galli)
# In short: (§3)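 Plants were sown in alluvial soil held under 0.1–0.5 cm standing water and grown 14 days in a greenhouse at 25–30 °C. An emulsifiable formulation, water-diluted to the set dose, was then sprayed onto the foliage, and effects were scored three weeks later using previously defined criteria.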
# Chinese sprangletop = assay: Test Example 3: herbicidal effect by foliage application, Wagner pot (Table 18, symbol D); type: in vivo, chinese sprangletop (Leptochloa chinensis)
# In short: as §3
# rice flat sedge = assay: Test Example 3: herbicidal effect by foliage application, Wagner pot (Table 18, symbol E); type: in vivo, rice flat sedge (Cyperus iria)
# In short: as §3
# southern crabgrass [8] = assay: Test Example 5: herbicidal effect by foliage application, plastic box (Table 20, symbol F); type: in vivo, southern crabgrass (Digitaria ciliaris); conditions: foliage application, 320 g/ha
# In short: (§4)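 Post-emergence foliar test in sterilized diluvial soil. Compound applied as water-diluted emulsion at a predetermined rate to 14-day-old plants; evaluation at three weeks.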
# green foxtail [9] = assay: Test Example 5: herbicidal effect by foliage application, plastic box (Table 20, symbol G); type: in vivo, green foxtail (Setaria viridis); conditions: foliage application, 320 g/ha
# In short: as §4
# barnyard grass [10] = assay: Test Example 5: herbicidal effect by foliage application, plastic box (Table 20, symbol H); type: in vivo, barnyard grass (Echinochloa crus-galli); conditions: foliage application, 320 g/ha
# In short: as §4
# wild oat [11] = assay: Test Example 5: herbicidal effect by foliage application, plastic box (Table 20, symbol I); type: in vivo, wild oat (Avena fatua); conditions: foliage application, 320 g/ha
# In short: as §4
# blackgrass [12] = assay: Test Example 5: herbicidal effect by foliage application, plastic box (Table 20, symbol J); type: in vivo, blackgrass (Alopecurus myosuroides); conditions: foliage application, 320 g/ha
# In short: as §4
# Italian ryegrass [13] = assay: Test Example 5: herbicidal effect by foliage application, plastic box (Table 20, symbol K); type: in vivo, Italian ryegrass (Lolium multiflorum); conditions: foliage application, 320 g/ha
# In short: as §4
# windgrass = assay: Test Example 5: herbicidal effect by foliage application, plastic box (Table 20, symbol L); type: in vivo, windgrass (Apera spica-venti); conditions: foliage application, 320 g/ha
# In short: as §4
# velvetleaf [14] = assay: Test Example 5: herbicidal effect by foliage application, plastic box (Table 20, symbol M); type: in vivo, velvetleaf (Abutilon theophrasti); conditions: foliage application, 320 g/ha
# In short: as §4
# redroot pigweed [15] = assay: Test Example 5: herbicidal effect by foliage application, plastic box (Table 20, symbol N); type: in vivo, redroot pigweed (Amaranthus retroflexus); conditions: foliage application, 320 g/ha
# In short: as §4
# lambsquarters [16] = assay: Test Example 5: herbicidal effect by foliage application, plastic box (Table 20, symbol O); type: in vivo, lambsquarters (Chenopodium album); conditions: foliage application, 320 g/ha
# In short: as §4
# chickweed = assay: Test Example 5: herbicidal effect by foliage application, plastic box (Table 20, symbol P); type: in vivo, common chickweed (Stellaria media); conditions: foliage application, 320 g/ha
# In short: as §4
# false cleavers [17] = assay: Test Example 5: herbicidal effect by foliage application, plastic box (Table 20, symbol Q); type: in vivo, false cleavers (Galium spurium); conditions: foliage application, 320 g/ha, evaluated three weeks after application
# In short: as §4
# persian speedwell = assay: Test Example 5: herbicidal effect by foliage application, plastic box (Table 20, symbol R); type: in vivo, Persian speedwell (Veronica persica); conditions: foliage application, 320 g/ha
# In short: as §4
# southern crabgrass [18] = assay: Test Example 4: herbicidal effect by soil treatment (Table 19, symbol F); type: in vivo, southern crabgrass (Digitaria ciliaris); conditions: amount of applied herbicide 320 g/ha
# In short: (§5)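 Emulsion of test compound, water-diluted to predetermined amount, sprayed on soil after sowing (seed depth ~1.5 cm, sterilized diluvial soil). Greenhouse, 25–30° C. Effect graded at three weeks post-spray.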
# green foxtail [19] = assay: Test Example 4: herbicidal effect by soil treatment (Table 19, symbol G); type: in vivo, green foxtail (Setaria viridis); conditions: amount of applied herbicide 320 g/ha
# In short: as §5
# barnyard grass [20] = assay: Test Example 4: herbicidal effect by soil treatment (Table 19, symbol H); type: in vivo, barnyard grass (Echinochloa crus-galli); conditions: amount of applied herbicide 320 g/ha
# In short: as §5
# wild oat [21] = assay: Test Example 4: herbicidal effect by soil treatment (Table 19, symbol I); type: in vivo, wild oat (Avena fatua); conditions: amount of applied herbicide 320 g/ha
# In short: as §5
# blackgrass [22] = assay: Test Example 4: herbicidal effect by soil treatment (Table 19, symbol J); type: in vivo, blackgrass (Alopecurus myosuroides); conditions: amount of applied herbicide 320 g/ha
# In short: as §5
# Italian ryegrass [23] = assay: Test Example 4: herbicidal effect by soil treatment (Table 19, symbol K); type: in vivo, Italian ryegrass (Lolium multiflorum); conditions: amount of applied herbicide 320 g/ha
# In short: as §5
# velvetleaf [24] = assay: Test Example 4: herbicidal effect by soil treatment (Table 19, symbol M); type: in vivo, velvetleaf (Abutilon theophrasti); conditions: amount of applied herbicide 320 g/ha
# In short: as §5
# redroot pigweed [25] = assay: Test Example 4: herbicidal effect by soil treatment (Table 19, symbol N); type: in vivo, redroot pigweed (Amaranthus retroflexus); conditions: amount of applied herbicide 320 g/ha
# In short: as §5
# lambsquarters [26] = assay: Test Example 4: herbicidal effect by soil treatment (Table 19, symbol O); type: in vivo, lambsquarters (Chenopodium album); conditions: amount of applied herbicide 320 g/ha
# In short: as §5
# false cleavers [27] = assay: Test Example 4: herbicidal effect by soil treatment (Table 19, symbol Q); type: in vivo, false cleavers (Galium spurium); conditions: amount of applied herbicide 320 g/ha
# Description: [Test Example 4] Herbicidal Effect Test by Soil Treatment
# Sterilized diluvial soil was placed in a plastic box having a length of 21 cm, a width of 13 cm, and a depth of 7 cm. The seeds of each of southern crabgrass, green foxtail, barnyard grass, wild oat, blackgrass, Italian ryegrass, windgrass, velvetleaf, redroot pigweed, lambsquarters, chickweed, false cleavers, persian speedwell, corn, soybean, rice, wheat, beet, and rapeseed were sowed in a spot-like manner and covered with the soil having a thickness of about 1.5 cm. Subsequently, the emulsion agent of the compound of the present invention prepared according to Formulation Example 2 was diluted with water so as to achieve a predetermined herbicide amount, and the diluted emulsion agent was uniformly applied to the surface of the soil with a small-sized spray. The plastic box was placed in a greenhouse at 25° C. to 30° C. for growth of the plants. Three weeks after the herbicide application, the effect of the herbicide on each plant was evaluated according to the criteria of Test Example 1.
# [28] = evaluated three weeks after application
# [29] = amount of applied herbicide 320 g/ha
smiles,measurement,setting,value
COCCOCOc1c(C)nn(C)c(=O)c1-c1c(-c2ccc(OCc3ccccc3)cc2)sc2ccc(F)cc12 [2-064],Herbicidal effect on A: late watergrass (grade 0-5),late watergrass [1],4 (Herbicidal rate of 70% or more and less than 90%)
same,Herbicidal effect on B: Japanese bulrush (grade 0-5),Japanese bulrush [2],4 (Herbicidal rate of 70% or more and less than 90%)
same,Herbicidal effect on C: oval-leafed pondweed (grade 0-5),oval-leafed pondweed [3],3 (Herbicidal rate of 40% or more and less than 70%)
same,"herbicidal effect rating, A: late watergrass",late watergrass [4],3 (Herbicidal rate of 40% or more and less than 70%)
same,"herbicidal effect rating, B: Japanese bulrush",Japanese bulrush [5],3 (Herbicidal rate of 40% or more and less than 70%)
same,"herbicidal effect rating, C: oval-leafed pondweed",oval-leafed pondweed [6],0 (Herbicidal rate of 5% or less (almost no effect))
same,"herbicidal effect on H (barnyard grass), rating 0-5",barnyard grass [7]; 320 g/ha,3 (Herbicidal rate of 40% or more and less than 70%)
same,"herbicidal effect on D (Chinese sprangletop), rating 0-5",Chinese sprangletop; 320 g/ha,3 (Herbicidal rate of 40% or more and less than 70%)
same,"herbicidal effect on E (rice flat sedge), rating 0-5",rice flat sedge; 320 g/ha,0 (Herbicidal rate of 5% or less (almost no effect))
same,herbicidal effect on F: southern crabgrass,southern crabgrass [8]; [28],3 (Herbicidal rate of 40% or more and less than 70%)
same,herbicidal effect on G: green foxtail,green foxtail [9]; [28],3 (Herbicidal rate of 40% or more and less than 70%)
same,herbicidal effect on H: barnyard grass,barnyard grass [10]; [28],3 (Herbicidal rate of 40% or more and less than 70%)
same,herbicidal effect on I: wild oat,wild oat [11]; [28],0 (Herbicidal rate of 5% or less (almost no effect))
same,herbicidal effect on J: blackgrass,blackgrass [12]; [28],0 (Herbicidal rate of 5% or less (almost no effect))
same,herbicidal effect on K: Italian ryegrass,Italian ryegrass [13]; [28],0 (Herbicidal rate of 5% or less (almost no effect))
same,herbicidal effect on L: windgrass,windgrass; [28],0 (Herbicidal rate of 5% or less (almost no effect))
same,herbicidal effect on M: velvetleaf,velvetleaf [14]; [28],3 (Herbicidal rate of 40% or more and less than 70%)
same,herbicidal effect on N: redroot pigweed,redroot pigweed [15]; [28],5 (Herbicidal rate of 90% or more (almost completely withered))
same,herbicidal effect on O: lambsquarters,lambsquarters [16]; [28],4 (Herbicidal rate of 70% or more and less than 90%)
same,herbicidal effect on P: chickweed,chickweed; [28],4 (Herbicidal rate of 70% or more and less than 90%)
same,herbicidal effect on Q: false cleavers,false cleavers [17],4 (Herbicidal rate of 70% or more and less than 90%)
same,herbicidal effect on R: persian speedwell,persian speedwell; [28],4 (Herbicidal rate of 70% or more and less than 90%)
Cc1nn(C)c(=O)c(-c2c(-c3ccc(F)cc3)sc3cc(Cl)ccc23)c1O [3-031],herbicidal effect on H: barnyard grass,barnyard grass [7]; [29],5 (Herbicidal rate of 90% or more (almost completely withered))
same,herbicidal effect on D: Chinese sprangletop,Chinese sprangletop; [29],2 (Herbicidal rate of 20% or more and less than 40%)
same,herbicidal effect on E: rice flat sedge,rice flat sedge; [29],3 (Herbicidal rate of 40% or more and less than 70%)
same,"F: southern crabgrass, herbicidal effect grade",southern crabgrass [18],3 (Herbicidal rate of 40% or more and less than 70%)
same,"G: green foxtail, herbicidal effect grade",green foxtail [19],4 (Herbicidal rate of 70% or more and less than 90%)
same,"H: barnyard grass, herbicidal effect grade",barnyard grass [20],3 (Herbicidal rate of 40% or more and less than 70%)
same,"I: wild oat, herbicidal effect grade",wild oat [21],1 (Herbicidal rate of 5% or more and less than 20%)
same,"J: blackgrass, herbicidal effect grade",blackgrass [22],0 (Herbicidal rate of 5% or less (almost no effect))
same,"K: Italian ryegrass, herbicidal effect grade",Italian ryegrass [23],3 (Herbicidal rate of 40% or more and less than 70%)
same,"M: velvetleaf, herbicidal effect grade",velvetleaf [24],2 (Herbicidal rate of 20% or more and less than 40%)
same,"N: redroot pigweed, herbicidal effect grade",redroot pigweed [25],3 (Herbicidal rate of 40% or more and less than 70%)
same,"O: lambsquarters, herbicidal effect grade",lambsquarters [26],4 (Herbicidal rate of 70% or more and less than 90%)
same,"Q: false cleavers, herbicidal effect grade",false cleavers [27],4 (Herbicidal rate of 70% or more and less than 90%)
same,"F: southern crabgrass, herbicidal effect grade",southern crabgrass [8]; three weeks after application,4 (Herbicidal rate of 70% or more and less than 90%)
same,"G: green foxtail, herbicidal effect grade",green foxtail [9]; three weeks after application,5 (Herbicidal rate of 90% or more (almost completely withered))
same,"H: barnyard grass, herbicidal effect grade",barnyard grass [10]; three weeks after application,4 (Herbicidal rate of 70% or more and less than 90%)
same,"I: wild oat, herbicidal effect grade",wild oat [11]; three weeks after application,5 (Herbicidal rate of 90% or more (almost completely withered))
same,"J: blackgrass, herbicidal effect grade",blackgrass [12]; three weeks after application,4 (Herbicidal rate of 70% or more and less than 90%)
same,"K: Italian ryegrass, herbicidal effect grade",Italian ryegrass [13]; three weeks after application,5 (Herbicidal rate of 90% or more (almost completely withered))
same,"L: windgrass, herbicidal effect grade",windgrass; three weeks after application,5 (Herbicidal rate of 90% or more (almost completely withered))
same,"M: velvetleaf, herbicidal effect grade",velvetleaf [14]; three weeks after application,5 (Herbicidal rate of 90% or more (almost completely withered))
same,"N: redroot pigweed, herbicidal effect grade",redroot pigweed [15]; three weeks after application,5 (Herbicidal rate of 90% or more (almost completely withered))
same,"O: lambsquarters, herbicidal effect grade",lambsquarters [16]; three weeks after application,4 (Herbicidal rate of 70% or more and less than 90%)
same,"P: chickweed, herbicidal effect grade",chickweed; three weeks after application,5 (Herbicidal rate of 90% or more (almost completely withered))
same,"R: persian speedwell, herbicidal effect grade",persian speedwell; three weeks after application,5 (Herbicidal rate of 90% or more (almost completely withered))
